Test results reported in the NIST ThermoML archive (doi:10.1021/je8000975).
± gives the expanded uncertainty stated by the source.

Columns and labels:
[1] = Liquid; for speed of sound: Sing-around technique in a fixed-path interferometer
[2] = xn = mol fraction of the nth substance listed; conditions: 101 kPa, Liquid

## COCCOCCO [2-(2-methoxyethoxy)ethanol]
[1]; 293.15 K
  mass density: 1019.81 ± 1.3 kg/m3
  speed of sound: 1432.4 ± 2.1 m/s
[1]; 298.15 K
  mass density: 1015.41 ± 1.3 kg/m3
  speed of sound: 1415.2 ± 2.1 m/s
[1]; 303.15 K
  mass density: 1010.91 ± 1.2 kg/m3
  speed of sound: 1397.9 ± 2.1 m/s

## COCCOCCO [2-(2-methoxyethoxy)ethanol] + COCCO
[2]; 293.15 K, x2 = 0.1005
  mass density: 1016.02 ± 1 kg/m3
[2]; 293.15 K, x2 = 0.1489
  mass density: 1014.09 ± 0.94 kg/m3
[2]; 293.15 K, x2 = 0.1983
  mass density: 1012.06 ± 0.88 kg/m3
[2]; 293.15 K, x2 = 0.2003
  mass density: 1011.98 ± 0.88 kg/m3
[2]; 293.15 K, x2 = 0.2517
  mass density: 1009.77 ± 0.82 kg/m3
[2]; 293.15 K, x2 = 0.2969
  mass density: 1007.77 ± 0.76 kg/m3
[2]; 293.15 K, x2 = 0.2993
  mass density: 1007.67 ± 0.76 kg/m3
[2]; 293.15 K, x2 = 0.3475
  mass density: 1005.45 ± 0.71 kg/m3
[2]; 293.15 K, x2 = 0.3505
  mass density: 1005.31 ± 0.7 kg/m3
[2]; 293.15 K, x2 = 0.3985
  mass density: 1003.01 ± 0.65 kg/m3
[2]; 293.15 K, x2 = 0.45
  mass density: 1000.45 ± 0.6 kg/m3
[2]; 293.15 K, x2 = 0.5003
  mass density: 997.85 ± 0.56 kg/m3
[2]; 293.15 K, x2 = 0.5998
  mass density: 992.362 ± 0.51 kg/m3
[2]; 293.15 K, x2 = 0.6476
  mass density: 989.566 ± 0.49 kg/m3
[2]; 293.15 K, x2 = 0.6993
  mass density: 986.398 ± 0.47 kg/m3
[2]; 293.15 K, x2 = 0.7475
  mass density: 983.311 ± 0.46 kg/m3
[2]; 293.15 K, x2 = 0.7485
  mass density: 983.242 ± 0.46 kg/m3
[2]; 293.15 K, x2 = 0.7971
  mass density: 979.992 ± 0.44 kg/m3
[2]; 293.15 K, x2 = 0.8465
  mass density: 976.527 ± 0.43 kg/m3
[2]; 293.15 K, x2 = 0.8977
  mass density: 972.767 ± 0.43 kg/m3
[2]; 293.15 K, x2 = 0.9483
  mass density: 968.858 ± 0.42 kg/m3
[2]; 298.15 K, x2 = 0.0523
  mass density: 1013.47 ± 1.1 kg/m3
[2]; 298.15 K, x2 = 0.1027
  mass density: 1011.52 ± 0.98 kg/m3
[2]; 298.15 K, x2 = 0.1523
  mass density: 1009.54 ± 0.92 kg/m3
[2]; 298.15 K, x2 = 0.1974
  mass density: 1007.67 ± 0.86 kg/m3
[2]; 298.15 K, x2 = 0.2507
  mass density: 1005.39 ± 0.8 kg/m3
[2]; 298.15 K, x2 = 0.294
  mass density: 1003.47 ± 0.75 kg/m3
[2]; 298.15 K, x2 = 0.3472
  mass density: 1001.02 ± 0.69 kg/m3
[2]; 298.15 K, x2 = 0.3976
  mass density: 998.612 ± 0.64 kg/m3
[2]; 298.15 K, x2 = 0.4502
  mass density: 995.991 ± 0.61 kg/m3
[2]; 298.15 K, x2 = 0.4981
  mass density: 993.508 ± 0.58 kg/m3
[2]; 298.15 K, x2 = 0.5
  mass density: 993.405 ± 0.57 kg/m3
[2]; 298.15 K, x2 = 0.5455
  mass density: 990.948 ± 0.55 kg/m3
[2]; 298.15 K, x2 = 0.5989
  mass density: 987.943 ± 0.52 kg/m3
[2]; 298.15 K, x2 = 0.6471
  mass density: 985.114 ± 0.5 kg/m3
[2]; 298.15 K, x2 = 0.7005
  mass density: 981.838 ± 0.48 kg/m3
[2]; 298.15 K, x2 = 0.749
  mass density: 978.717 ± 0.47 kg/m3
[2]; 298.15 K, x2 = 0.7983
  mass density: 975.395 ± 0.45 kg/m3
[2]; 298.15 K, x2 = 0.846
  mass density: 972.046 ± 0.45 kg/m3
[2]; 298.15 K, x2 = 0.8832
  mass density: 969.324 ± 0.44 kg/m3
[2]; 298.15 K, x2 = 0.8956
  mass density: 968.391 ± 0.44 kg/m3
[2]; 298.15 K, x2 = 0.9483
  mass density: 964.311 ± 0.43 kg/m3
[2]; 303.15 K, x2 = 0.0536
  mass density: 1008.92 ± 1 kg/m3
[2]; 303.15 K, x2 = 0.1018
  mass density: 1007.06 ± 0.97 kg/m3
[2]; 303.15 K, x2 = 0.15
  mass density: 1005.13 ± 0.9 kg/m3
[2]; 303.15 K, x2 = 0.2011
  mass density: 1003.02 ± 0.84 kg/m3
[2]; 303.15 K, x2 = 0.2499
  mass density: 1000.92 ± 0.78 kg/m3
[2]; 303.15 K, x2 = 0.2515
  mass density: 1000.85 ± 0.78 kg/m3
[2]; 303.15 K, x2 = 0.301
  mass density: 998.636 ± 0.73 kg/m3
[2]; 303.15 K, x2 = 0.3527
  mass density: 996.24 ± 0.69 kg/m3
[2]; 303.15 K, x2 = 0.3986
  mass density: 994.036 ± 0.65 kg/m3
[2]; 303.15 K, x2 = 0.4493
  mass density: 991.5 ± 0.62 kg/m3
[2]; 303.15 K, x2 = 0.5028
  mass density: 988.711 ± 0.58 kg/m3
[2]; 303.15 K, x2 = 0.5499
  mass density: 986.158 ± 0.56 kg/m3
[2]; 303.15 K, x2 = 0.6
  mass density: 983.323 ± 0.53 kg/m3
[2]; 303.15 K, x2 = 0.6482
  mass density: 980.488 ± 0.51 kg/m3
[2]; 303.15 K, x2 = 0.6941
  mass density: 977.672 ± 0.49 kg/m3
[2]; 303.15 K, x2 = 0.7485
  mass density: 974.182 ± 0.48 kg/m3
[2]; 303.15 K, x2 = 0.7979
  mass density: 970.854 ± 0.47 kg/m3
[2]; 303.15 K, x2 = 0.8989
  mass density: 963.546 ± 0.45 kg/m3
[2]; 303.15 K, x2 = 0.9476
  mass density: 959.766 ± 0.45 kg/m3

## CCCCOCCO [2-butoxyethan-1-ol]
[1]; 293.15 K
  mass density: 900.094 ± 1.5 kg/m3
  speed of sound: 1322.5 ± 2.1 m/s
[1]; 298.15 K
  mass density: 895.91 ± 1.5 kg/m3
  speed of sound: 1304.9 ± 2.1 m/s
[1]; 303.15 K
  mass density: 891.697 ± 1.5 kg/m3
  speed of sound: 1288 ± 2.1 m/s

## CCCCOCCO [2-butoxyethan-1-ol] + COCCO
[2]; 293.15 K, x2 = 0.0524
  mass density: 902.021 ± 1.2 kg/m3
[2]; 293.15 K, x2 = 0.1023
  mass density: 903.942 ± 1.1 kg/m3
[2]; 293.15 K, x2 = 0.1513
  mass density: 905.929 ± 1.1 kg/m3
[2]; 293.15 K, x2 = 0.2009
  mass density: 908.026 ± 1 kg/m3
[2]; 293.15 K, x2 = 0.2491
  mass density: 910.172 ± 0.97 kg/m3
[2]; 293.15 K, x2 = 0.3006
  mass density: 912.586 ± 0.92 kg/m3
[2]; 293.15 K, x2 = 0.3411
  mass density: 914.561 ± 0.89 kg/m3
[2]; 293.15 K, x2 = 0.3986
  mass density: 917.531 ± 0.84 kg/m3
[2]; 293.15 K, x2 = 0.4484
  mass density: 920.249 ± 0.8 kg/m3
[2]; 293.15 K, x2 = 0.4994
  mass density: 923.189 ± 0.75 kg/m3
[2]; 293.15 K, x2 = 0.5492
  mass density: 926.262 ± 0.71 kg/m3
[2]; 293.15 K, x2 = 0.5987
  mass density: 929.459 ± 0.68 kg/m3
[2]; 293.15 K, x2 = 0.6489
  mass density: 932.911 ± 0.64 kg/m3
[2]; 293.15 K, x2 = 0.7291
  mass density: 938.888 ± 0.58 kg/m3
[2]; 293.15 K, x2 = 0.7487
  mass density: 940.45 ± 0.57 kg/m3
[2]; 293.15 K, x2 = 0.7996
  mass density: 944.683 ± 0.53 kg/m3
[2]; 293.15 K, x2 = 0.8491
  mass density: 949.097 ± 0.5 kg/m3
[2]; 293.15 K, x2 = 0.8992
  mass density: 953.883 ± 0.47 kg/m3
[2]; 293.15 K, x2 = 0.9495
  mass density: 959.058 ± 0.45 kg/m3
[2]; 298.15 K, x2 = 0.0522
  mass density: 897.844 ± 1.2 kg/m3
[2]; 298.15 K, x2 = 0.1029
  mass density: 899.781 ± 1.1 kg/m3
[2]; 298.15 K, x2 = 0.15
  mass density: 901.679 ± 1.1 kg/m3
[2]; 298.15 K, x2 = 0.2019
  mass density: 903.86 ± 1 kg/m3
[2]; 298.15 K, x2 = 0.2489
  mass density: 905.939 ± 0.98 kg/m3
[2]; 298.15 K, x2 = 0.2999
  mass density: 908.306 ± 0.93 kg/m3
[2]; 298.15 K, x2 = 0.3514
  mass density: 910.818 ± 0.89 kg/m3
[2]; 298.15 K, x2 = 0.3994
  mass density: 913.289 ± 0.85 kg/m3
[2]; 298.15 K, x2 = 0.449
  mass density: 915.99 ± 0.81 kg/m3
[2]; 298.15 K, x2 = 0.4755
  mass density: 917.493 ± 0.78 kg/m3
[2]; 298.15 K, x2 = 0.4987
  mass density: 918.836 ± 0.77 kg/m3
[2]; 298.15 K, x2 = 0.5985
  mass density: 925.072 ± 0.69 kg/m3
[2]; 298.15 K, x2 = 0.6476
  mass density: 928.432 ± 0.65 kg/m3
[2]; 298.15 K, x2 = 0.6975
  mass density: 932.045 ± 0.62 kg/m3
[2]; 298.15 K, x2 = 0.7481
  mass density: 935.968 ± 0.58 kg/m3
[2]; 298.15 K, x2 = 0.7988
  mass density: 940.157 ± 0.55 kg/m3
[2]; 298.15 K, x2 = 0.8476
  mass density: 944.484 ± 0.52 kg/m3
[2]; 298.15 K, x2 = 0.8993
  mass density: 949.386 ± 0.48 kg/m3
[2]; 298.15 K, x2 = 0.9478
  mass density: 954.336 ± 0.46 kg/m3
[2]; 303.15 K, x2 = 0.0483
  mass density: 893.466 ± 1.2 kg/m3
[2]; 303.15 K, x2 = 0.1002
  mass density: 895.434 ± 1.1 kg/m3
[2]; 303.15 K, x2 = 0.1519
  mass density: 897.493 ± 1.1 kg/m3
[2]; 303.15 K, x2 = 0.1997
  mass density: 899.493 ± 1 kg/m3
[2]; 303.15 K, x2 = 0.2393
  mass density: 901.221 ± 0.99 kg/m3
[2]; 303.15 K, x2 = 0.2476
  mass density: 901.59 ± 0.99 kg/m3
[2]; 303.15 K, x2 = 0.3501
  mass density: 906.436 ± 0.9 kg/m3
[2]; 303.15 K, x2 = 0.3985
  mass density: 908.906 ± 0.86 kg/m3
[2]; 303.15 K, x2 = 0.4499
  mass density: 911.682 ± 0.81 kg/m3
[2]; 303.15 K, x2 = 0.4966
  mass density: 914.34 ± 0.78 kg/m3
[2]; 303.15 K, x2 = 0.5031
  mass density: 914.737 ± 0.77 kg/m3
[2]; 303.15 K, x2 = 0.6119
  mass density: 921.563 ± 0.69 kg/m3
[2]; 303.15 K, x2 = 0.6471
  mass density: 923.963 ± 0.67 kg/m3
[2]; 303.15 K, x2 = 0.7275
  mass density: 929.874 ± 0.61 kg/m3
[2]; 303.15 K, x2 = 0.7491
  mass density: 931.575 ± 0.59 kg/m3
[2]; 303.15 K, x2 = 0.7969
  mass density: 935.498 ± 0.56 kg/m3
[2]; 303.15 K, x2 = 0.8463
  mass density: 939.82 ± 0.53 kg/m3
[2]; 303.15 K, x2 = 0.8986
  mass density: 944.764 ± 0.5 kg/m3
[2]; 303.15 K, x2 = 0.9475
  mass density: 949.713 ± 0.47 kg/m3
